Experimental data taken from article PMC6733935, “A convenient and efficient total solid-phase synthesis of DOTA-functionalized tumor-targeting peptides for PET imaging of cancer” (EJNMMI Research, 2019).
Numbered stars: 1 amine (or outer) side, 2 acyl side, 3 side chain; on linkers, the order of the positions; unused ones are H or OH. Square brackets hold non-standard residues; d marks the D form. Peptide text beside a SMILES is read from it. * marks the point of attachment. DOTA = O=C(O)CN1CCN(CC(=O)O)CCN(CC(=O)*)CCN(CC(=O)O)CC1; Cha = N[C@@H](CC1CCCCC1)C(=O)O; X1 = O=C(CCC(=O)[*:2])CN[*:1]; Nle = CCCC[C@H](N)C(=O)O; Ahx = NCCCCCC(=O)O

Experiments:
MDA-MB-231 tumors = assay: in vivo; format: in vivo, nude mice; settings: for Radioactivity in Urine + bladder / Uptake in Blood / Uptake in Intestines (measured without their contents) / Uptake in Kidneys / Uptake in Liver / Uptake in Lungs / Uptake in Muscle / Uptake in Pancreas / Uptake in Spleen / Uptake in Stomach: female, nude, mouse, in vivo; for Uptake in Tumor: nude mice with MDA-MB-231 tumors, mean ± SD, n = 3-5
Protocol: BN/GRP receptor-positive MDA-MB-231 and PC3 cell lines (American Type Culture Collection, Rockville, USA) were grown as monolayers at 37 °C in a humidified atmosphere containing RPMI-1640 culture media with 10% fetal bovine serum (FBS) in tissue culture flasks. Twenty-four hours prior to conducting the tumor implantation, the media was replaced with RPMI-1640/10% FBS. The cells were grown to 80-90% confluency and harvested by trypsinization. After centrifugation, about 50 million cells were suspended in 1 mL media for implantation into mice. To prepare cells for inoculation, MDA-MB-231 or PC3 cancer cells with media were centrifuged, the media decanted, and the cell pellet was mixed with phosphate-buffered saline (PBS) to reach a concentration of approximately 5 million cells per 100 μL PBS. Human MDA-MB-231 breast cancer xenografts female mouse models were used for in vivo tumor-targeting experiments. For the implantation of tumor xenografts, approximately five million MDA-MB-231 cells in suspension of 100 μL sterile PBS were injected subcutaneously into the left thigh of each mouse. Tumors were allowed to grow for 4-6 weeks by which tumors had reached weights of 200-300 mg. After sufficient growth of tumors, animals were injected with 20-30 μCi of the radiotracers and the animals were sacrificed at specified time points. The uptake of ^68Ga-radiolabeled peptides in the tumors and other major body organs was calculated by γ-counting as described above.

[1] = target: T1, BN/GRP receptor-positive MCF7 human breast cancer cells (Homo sapiens, UniProt P30550); assay: Saturation binding assay on MCF7 cells; settings: n = 3-5 experiments; for Bmax (apparent number of binding sites per cell): SD < 15%; for Kd: ~300,000 cells, 0.1-25 nM radiopeptide, 60 min, room temperature, mean ± SD
T1 construct: BN/GRP receptor-positive MDA-MB-231, MCF7, T47D human breast cancer, and PC3 human prostate cancer lines; host or cells: MDA-MB-231, MCF7, T47D (human breast cancer), PC3 (human prostate cancer); intact cells
Protocol: (§1) The cell binding of ^68Ga-radiolabeled peptides into BN/GRP receptor-positive MDA-MB-231, MCF7, T47D human breast cancer, and PC3 human prostate cancer lines (American Type Culture Collection, Rockville, MD, USA) was performed according to the method described previously. In brief, ∼ 300,000 cells (in 300 μL in low-serum media) were incubated with various amounts of radiopeptides, ranging between 0.1 and 25 nM of peptide (prepared from the serial dilutions of HPLC-purified radiopeptides), in duplicate for 60 min at room temperature. The initial concentrations of ^68Ga-labeled peptides were determined according to a well-established HPLC technique with simultaneous detection by UV absorbance. As the amount of BN peptide in the reaction mixture was too small to be detected by UV absorption at 220 nm, the radioactive peptide chromatograms from the HPLC analysis were compared (with UV chromatograms) with those of known concentrations of the corresponding nonradioactive peptides for the mass determination. Incubation was terminated by dilution with cold saline (300 μL) and the cells were pelleted by centrifugation. The cell pellets was then rapidly washed with cold saline to remove any unbound peptide and centrifuged to collect supernatants. Radioactivity in the cell pellet and the washings was measured in a γ-counter. Non-specific binding was determined in the presence of ~ 200-fold molar excess of unlabeled BN peptide. Specific binding is calculated by subtracting the non-specifically bound radioactivity from that of the total binding. The dissociation constant (Kd) was calculated using a plot of cell bound activity versus the concentration of the radioligand using GraphPad Prism software (GraphPad Software Inc., San Diego, CA, USA).

[2] = target: T2, BN/GRP receptor-positive MDA-MB-231 human breast cancer cells (Homo sapiens, UniProt P30550); assay: Saturation binding assay on MDA-MB-231 cells; settings: n = 3-5 experiments; for Bmax (apparent number of binding sites per cell): SD < 15%; for Kd: ~300,000 cells, 0.1-25 nM radiopeptide, 60 min, room temperature, mean ± SD
T2 construct: BN/GRP receptor-positive MDA-MB-231, MCF7, T47D human breast cancer, and PC3 human prostate cancer lines; host or cells: MDA-MB-231, MCF7, T47D (human breast cancer), PC3 (human prostate cancer); intact cells
Protocol: as §1

[3] = Radio-HPLC retention time as reflection of lipophilicity; format: physicochemical; settings: chromatographic, econosphere C18 (10 μm, 250 × 4.6 mm), 0.1% TFA water/acetonitrile, 5 to 95% B over 30 min, 1.1 mL/min; radio detection; used as reflection of lipophilicity
Protocol: The HPLC analysis and purification of the peptides were performed on a Shimadzu HPLC system using econosphere C18 reversed-phase column (10 μm, 250 × 4.6 mm). For all HPLC experiments, a gradient system of 0.1% (v/v) TFA in water (solvent A) and 0.1% (v/v) TFA in acetonitrile (solvent B) at a flow rate of 1.1 mL/min was used. The HPLC gradient began with a solvent composition of 95% A and 5% B from 0 to 2.5 min followed by a linear gradient of 95% A and 5% B to 5% A and 95% B over 30 min. The gradient remained at this position for 3 min before switching back to 95% A and 5% B for another 7 min. The major peak isolated and the acetonitrile was then slowly evaporated under a stream of nitrogen gas. Radiochemical purity was estimated by evaluating radioactivity peaks eluted for each ^68Ga-labeled peptide from the HPLC column and calculating the area under the peak (ROI). The main peak of each radiopeptide was isolated and reconstituted in sterile saline for in vitro and in vivo experiments. Radiolabeling of DOTA-coupled BN peptides with ^68Ga was accomplished simply by mixing ~ 20 μg BN peptide with sodium acetate buffer and ^68GaCl3 followed by heating to complete the labeling reaction. By this facile method, a high and reproducible radiolabeling of peptides with ^68Ga was achieved (up to 95%), with a specific radioactivity of greater than 250 Ci/mmol. […] A radiolabeling efficiency of greater than 90% was obtained in all cases, and it ranged between 90 and 95%. […] RP-HPLC retention times of the major peaks, ranging from 18.3 to 20.3 min, reflected slightly variable lipophilicity of these ^68Ga-complexes (Table 1).

[4] = target: T3, BN/GRP receptor-positive PC3 human prostate cancer cells (Homo sapiens, UniProt P30550); assay: Saturation binding assay on PC3 cells; settings: n = 3-5 experiments; for Bmax (apparent number of binding sites per cell): SD < 15%; for Kd: ~300,000 cells, 0.1-25 nM radiopeptide, 60 min, room temperature, mean ± SD
T3 construct: BN/GRP receptor-positive MDA-MB-231, MCF7, T47D human breast cancer, and PC3 human prostate cancer lines; host or cells: MDA-MB-231, MCF7, T47D (human breast cancer), PC3 (human prostate cancer); intact cells
Protocol: as §1

[5] = target: T4, BN/GRP receptor-positive T47D human breast cancer cells (Homo sapiens, UniProt P30550); assay: Saturation binding assay on T47D cells; settings: n = 3-5 experiments; for Bmax (apparent number of binding sites per cell): SD < 15%; for Kd: ~300,000 cells, 0.1-25 nM radiopeptide, 60 min, room temperature, mean ± SD
T4 construct: BN/GRP receptor-positive MDA-MB-231, MCF7, T47D human breast cancer, and PC3 human prostate cancer lines; host or cells: MDA-MB-231, MCF7, T47D (human breast cancer), PC3 (human prostate cancer); intact cells
Protocol: as §1

## CCCC[C@H](NC(=O)[C@H](Cc1c[nH]cn1)NC(=O)[C@H](CC1CCCCC1)NC(=O)[C@@H](NC(=O)[C@H](C)NC(=O)[C@H](Cc1c[nH]c2ccccc12)NC(=O)[C@H](CCC(N)=O)NC(=O)[C@H](CS)NC(=O)CNC(=O)CNC(=O)CCC(=O)CNC(=O)CN1CCN(CC(=O)O)CCN(CC(=O)O)CCN(CC(=O)O)CC1)C(C)C)C(=O)N[C@@H](CCSC)C(N)=O [^68Ga-DOTA-ALA-BN Tris-, metal not drawn] ({DOTA}-[X1]GGCQWAV[Cha]H[Nle]M-NH2)
MDA-MB-231 tumors; 1 h
  Radioactivity in Urine + bladder: 54.0 ± 5.78 % injected dose per tissue
  Uptake in Blood: 0.85 ± 0.15 % ID/g
  Uptake in Intestines (measured without their contents): 1.05 ± 0.18 % ID/g
  Uptake in Kidneys: 5.12 ± 0.69 % ID/g
  Uptake in Liver: 2.31 ± 0.38 % ID/g
  Uptake in Lungs: 2.35 ± 0.33 % ID/g
  Uptake in Muscle: 0.39 ± 0.03 % ID/g
  Uptake in Pancreas: 1.19 ± 0.15 % ID/g
  Uptake in Spleen: 0.44 ± 0.06 % ID/g
  Uptake in Stomach: 0.83 ± 0.21 % ID/g
MDA-MB-231 tumors; 2 h
  Radioactivity in Urine + bladder: 61.0 ± 7.10 % injected dose per tissue
  Uptake in Blood: 0.30 ± 0.04 % ID/g
  Uptake in Intestines (measured without their contents): 0.73 ± 0.13 % ID/g
  Uptake in Kidneys: 3.56 ± 0.50 % ID/g
  Uptake in Liver: 1.50 ± 0.27 % ID/g
  Uptake in Lungs: 0.70 ± 0.16 % ID/g
  Uptake in Muscle: 0.23 ± 0.02 % ID/g
  Uptake in Pancreas: 0.71 ± 0.10 % ID/g
  Uptake in Spleen: 0.35 ± 0.03 % ID/g
  Uptake in Stomach: 0.37 ± 0.07 % ID/g
MDA-MB-231 tumors; 1 h p.i.
  Uptake in Tumor: 1.78 ± 0.40 % ID/g
MDA-MB-231 tumors; 2 h p.i.
  Uptake in Tumor: 1.25 ± 0.21 % ID/g
[1]
  Bmax (apparent number of binding sites per cell): 1.05 × 10^5 sites/cell
  Kd: 12.3 ± 1.94 nM
[2]
  Bmax (apparent number of binding sites per cell): 1.12 × 10^5 sites/cell
  Kd: 14.7 ± 2.24 nM
[3]
  Radio-HPLC tR: 20.3 min
[4]
  Bmax (apparent number of binding sites per cell): 2.63 × 10^5 sites/cell
  Kd: 13.5 ± 2.53 nM
[5]
  Bmax (apparent number of binding sites per cell): 9.68 × 10^4 sites/cell
  Kd: 16 ± 4.01 nM

## CCCC[C@H](NC(=O)[C@H](Cc1c[nH]cn1)NC(=O)[C@H](CC1CCCCC1)NC(=O)[C@@H](NC(=O)[C@H](C)NC(=O)[C@H](Cc1c[nH]c2ccccc12)NC(=O)[C@H](CCC(N)=O)NC(=O)[C@H](CS)NC(=O)CNC(=O)CNC(=O)CCCCCNC(=O)CN1CCN(CC(=O)O)CCN(CC(=O)O)CCN(CC(=O)O)CC1)C(C)C)C(=O)N[C@@H](CCSC)C(N)=O [^68Ga-DOTA-Ahx-BN Cyclen, metal not drawn] ({DOTA-Ahx}-GGCQWAV[Cha]H[Nle]M-NH2)
MDA-MB-231 tumors; MDA-MB-231 tumors, nude mice, 1 h vs 2 h p.i.
  washout from the tumors over 2 h: 28%
MDA-MB-231 tumors; 1 h
  Uptake in Liver: 1.02 ± 0.16 % ID/g
  Uptake in Lungs: 0.55 ± 0.10 % ID/g
MDA-MB-231 tumors; 2 h
  Uptake in Liver: 0.91 ± 0.10 % ID/g
MDA-MB-231 tumors; 1 h p.i.
  Uptake in Tumor: 2.32 ± 0.25 % ID/g
MDA-MB-231 tumors; 2 h p.i.
  Uptake in Tumor: 1.65 ± 0.19 % ID/g
[1]
  Bmax (apparent number of binding sites per cell): 6.90 × 10^5 sites/cell
  Kd: 9.8 ± 1.64 nM
[2]
  Bmax (apparent number of binding sites per cell): 5.13 × 10^5 sites/cell
  Kd: 12.7 ± 2.94 nM
[3]
  Radio-HPLC tR: 18.3 min
[4]
  Bmax (apparent number of binding sites per cell): 5.29 × 10^5 sites/cell
  Kd: 9.89 ± 1.56 nM
[5]
  Bmax (apparent number of binding sites per cell): 4.75 × 10^5 sites/cell
  Kd: 15.3 ± 3.42 nM

## CCCC[C@H](NC(=O)[C@H](Cc1c[nH]cn1)NC(=O)[C@H](CC1CCCCC1)NC(=O)[C@@H](NC(=O)[C@H](C)NC(=O)[C@H](Cc1c[nH]c2ccccc12)NC(=O)[C@H](CCC(N)=O)NC(=O)[C@H](CS)NC(=O)CNC(=O)CNC(=O)CCC(=O)CNC(=O)CN1CCN(CC(=O)O)CCN(CC(=O)O)CCN(CC(=O)O)CC1)C(C)C)C(=O)N[C@@H](CCSC)C(N)=O [^68Ga-DOTA-ALA-BN Cyclen, metal not drawn] ({DOTA}-[X1]GGCQWAV[Cha]H[Nle]M-NH2)
MDA-MB-231 tumors; 2 h
  Uptake in Spleen: 0.17 ± 0.02 % ID/g
MDA-MB-231 tumors; 1 h p.i.
  Uptake in Tumor: 1.82 ± 0.26 % ID/g
MDA-MB-231 tumors; 2 h p.i.
  Uptake in Tumor: 0.84 ± 0.13 % ID/g
[1]
  Bmax (apparent number of binding sites per cell): 2.11 × 10^5 sites/cell
  Kd: 13.7 ± 2.32 nM
[2]
  Bmax (apparent number of binding sites per cell): 1.02 × 10^5 sites/cell
  Kd: 15.1 ± 3.12 nM
[3]
  Radio-HPLC tR: 20.3 min
[4]
  Bmax (apparent number of binding sites per cell): 2.12 × 10^5 sites/cell
  Kd: 9.7 ± 2.01 nM
[5]
  Bmax (apparent number of binding sites per cell): 9.90 × 10^4 sites/cell
  Kd: 15.6 ± 3.47 nM
